Test results taken from patent US20210338626A1, “METHODS FOR TREATING OR PREVENTING A VIRAL INFECTION OR INHIBITING VIRAL REPLICATION” (Dalcor Pharma UK Ltd., Leatherhead, Zug Branch, priority 2020, published 2021).
Read-outs that look alike come from different tables or passages of the source.

Columns and labels:
SARS-CoV-2 = SARS-CoV-2 plaque formation in Vero E6 cells; type: cell-based; details: Severe acute respiratory syndrome coronavirus 2, Vero C1008, pre-incubated one hour before addition of virus, read-out: IC50, SARS-CoV-2 plaque formation / viral replication
[1] = target: T1, cholesteryl ester transfer protein (Homo sapiens, UniProt P11597); details: cited from earlier work
T1 sequence (P11597 18-493): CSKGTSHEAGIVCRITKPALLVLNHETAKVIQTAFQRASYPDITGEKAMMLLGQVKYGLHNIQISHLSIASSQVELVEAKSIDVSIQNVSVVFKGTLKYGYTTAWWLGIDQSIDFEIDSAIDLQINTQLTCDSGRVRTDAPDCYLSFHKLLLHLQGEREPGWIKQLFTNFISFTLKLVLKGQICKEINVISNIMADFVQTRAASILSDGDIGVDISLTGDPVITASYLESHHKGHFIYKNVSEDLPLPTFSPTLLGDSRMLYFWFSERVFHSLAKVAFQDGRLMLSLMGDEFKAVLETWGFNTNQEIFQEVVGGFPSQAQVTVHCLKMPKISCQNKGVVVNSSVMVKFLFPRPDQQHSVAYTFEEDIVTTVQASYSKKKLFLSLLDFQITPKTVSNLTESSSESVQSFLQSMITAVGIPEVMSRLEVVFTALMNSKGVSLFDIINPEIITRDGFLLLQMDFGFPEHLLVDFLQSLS

[2] = design: species or system rodents; details: in vivo, po
Source text: (§1) In rats, the percentages of an administered oral dose excreted into the feces as dalcetrapib-ester and dalcetrapib thiol plus dalcetrapib thiol dimer are 41.1% and 17.8%, respectively. The corresponding values following oral administration in monkeys are 11.6% and 22.2%.

[3] = in vivo; cited from earlier work
[4] = design: species or system monkeys; details: monkey, in vivo
Source text: as §1

[5] = design: species or system rats; details: rat, in vivo
Source text: as §1

Compound	IC50 (SARS-CoV-2) [µM]	IC50 ([1]; pre-incubation 1 hour) [nM]	IC50 ([1]; pre-incubation 24 hours) [nM]	tissue distribution [2]	safety issues from formation of covalent protein adducts [3]	percentage of administered oral dose excreted into the feces as dalcetrapib thiol plus dalcetrapib thiol dimer [4] [%]	percentage of administered oral dose excreted into the feces as dalcetrapib-ester [4] [%]	percentage of administered oral dose excreted into the feces as dalcetrapib thiol plus dalcetrapib thiol dimer [5] [%]	percentage of administered oral dose excreted into the feces as dalcetrapib-ester [5] [%]
CCC(CC)CC1(C(=O)Nc2ccccc2S)CCCCC1 [Dalcetrapib thiol]	~17.8								
CCC(CC)CC1(C(=O)Nc2ccccc2SC(=O)C(C)C)CCCCC1 [Dalcetrapib]	17.8	1180	45	distributes in all tissues including the lungs and gastrointestinal tract	has not been observed	22.2	11.6	17.8	41.1
